Test results: US10517889B2, “Modulators of SMAD7 expression” (Ionis Pharmaceuticals, Inc., priority 2017, dated 2019)
Strand notation (5' to 3'): a small letter for the sugar, then the base; units joined by * are phosphorothioate-linked, units joined directly phosphodiester-linked; [ ] holds rarer units or linkages, { } end groups; capitals alone tell only the bases. k = constrained ethyl (cEt); [5mC] = 5-methylcytosine; d = 2'-deoxy (DNA)

Columns and labels:
human SMAD7 mRNA [1] = experiment: Dose-dependent inhibition of human SMAD7 mRNA expression in Hep3B cells (Example 3, Study 1 and 2); assay type: cell-based; settings: electroporation; for % inhibition of SMAD7 mRNA expression: approximately 16 hours; for IC50: Study 2 (740-20000 nM)
Procedure, shortened: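 Hep3B cells, 20,000 per well, electroporated with antisense oligonucleotide at 0.31, 1.25, 5.00 or 20.00 μM (first series) or 0.74, 2.22, 6.67 or 20.00 μM (second series). After ~16 h, SMAD7 mRNA measured by RT-qPCR (RTS5062), normalised to RIBOGREEN total RNA. Percent inhibition vs untreated cells; IC50 derived.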

human SMAD7 mRNA [2] = experiment: Antisense inhibition of human SMAD7 mRNA expression in Hep3B cells by 3-10-3 cEt gapmers, 10,000 nM, electroporation (Example 2); assay type: cell-based; settings: approximately 24 hours
Procedure, shortened: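 Hep3B, 20,000 cells/well; electroporation, 10,000 nM ASO; ~24 h. Readout: SMAD7 mRNA by qRT-PCR (RTS5062), RIBOGREEN-normalised; % inhibition vs untreated.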

[3] = 740 nM, Study 2, relative to untreated control cells
[4] = Hep3B cells, electroporation, 10,000 nM antisense oligonucleotide, RTS5062, relative to untreated control cells
[5] = SMAD7 mRNA, Hep3B cells, 10,000 nM antisense oligonucleotide, electroporation, primer probe set RTS5062, relative to untreated control cells
[6] = Hep3B cells, electroporation with 10,000 nM antisense oligonucleotide, SMAD7 mRNA by RT-PCR (RTS5062), relative to untreated control cells

Substance	% inhibition of SMAD7 mRNA expression (human SMAD7 mRNA [1]; [3]) [%]	% inhibition of SMAD7 mRNA expression (human SMAD7 mRNA [1]; 2220 nM, Study 2) [%]	% inhibition of SMAD7 mRNA expression (human SMAD7 mRNA [1]; 6670.0 nM, Study 2) [%]	% inhibition of SMAD7 mRNA expression (human SMAD7 mRNA [1]; 20000.0 nM, Study 2) [%]	IC50 (human SMAD7 mRNA [1]) [µM]	% inhibition of SMAD7 mRNA expression (human SMAD7 mRNA [2]; [4]) [%]	% Inhibition (human SMAD7 mRNA [2]; [5]) [%]	% Inhibition (human SMAD7 mRNA [2]; [6]) [%]	% Inhibition (human SMAD7 mRNA [2]; Hep3B cells, electroporation with 10,000 nM antisense oligonucleotide, RTS5062, percent inhibition of SMAD7 mRNA relative to untreated control cells) [%]	% inhibition of SMAD7 mRNA expression (human SMAD7 mRNA [2]; Hep3B cells, electroporation with 10,000 nM antisense oligonucleotide, primer probe set RTS5062, relative to untreated control cells) [%]	% Inhibition (human SMAD7 mRNA [2]; SMAD7 mRNA, Hep3B cells, electroporation with 10,000 nM antisense oligonucleotide, primer probe set RTS5062, relative to untreated control cells) [%]
799712 (antisense kA*kT*kA*dG*dA*dT*dT*dA*dT*d[5mC]*d[5mC]*dA*dA*kG*kT*kA) [compound 799712]	27	45	55	63	3	70					
790732 (kG*k[5mC]*kT*dT*dA*dT*dT*dT*d[5mC]*dA*dT*dG*dT*kG*kG*kT; antisense) [compound 790732]	70	78	88	93	2		69				
772732 (kG*kA*kT*dA*dT*dT*dT*dA*dG*d[5mC]*dT*dG*dT*k[5mC]*kA*kG; antisense) [compound 772732]	27	60	63	68	3		58				
830100 (kG*kG*kA*dG*d[5mC]*dT*d[5mC]*dA*dA*dA*d[5mC]*dT*dT*kT*kG*kA; antisense) [compound 830100]	3	8	38	69	2			61			
799921 (antisense k[5mC]*kT*kA*dA*dT*dT*dA*dG*dT*dG*dA*d[5mC]*dT*kG*kT*kG) [compound 799921]	10	35	55	58	11			75			
799589 (kA*kA*kT*dA*dT*d[5mC]*dT*dG*dT*dG*dT*d[5mC]*dT*kA*k[5mC]*kA; antisense) [compound 799589]	15	58	77	82	4				65		
799365 (k[5mC]*kT*k[5mC]*d[5mC]*dG*dA*dG*dT*dT*dA*dT*d[5mC]*d[5mC]*k[5mC]*k[5mC]*kA; antisense) [compound 799365]	11	39	73	94	4					61	
829995 (kT*kG*kG*dA*dG*dG*d[5mC]*dA*dG*dG*dG*d[5mC]*d[5mC]*kG*k[5mC]*kG; antisense) [compound 829995]	36	74	76	84	8						78
799751 (antisense kG*kA*kG*d[5mC]*dT*dA*dA*dT*dG*dA*d[5mC]*dA*d[5mC]*kT*kG*kG) [compound 799751]	11	35	69	65	10	60					
800048 (antisense kT*kG*kG*dA*dA*dA*dG*dG*dA*dA*dG*dA*d[5mC]*kT*k[5mC]*kG) [compound 800048]	0	31	58	58	4			64			
